Source: US10919937B2, “Bicyclic peptide ligands and uses thereof” (BicycleTx Limited, priority 2018, dated 2021)
*1 amine or outer side, *2 acyl side, *3 side chain or, on linkers, in order; H or OH if unused. Where a SMILES comes first, the peptide text is derived from it. Bridges are numbered along the chain shown (N, C = ends). [ ]: non-standard residue; d: D form. X11 = O=C(C[*:1])N1CCN(c2ccc(-c3nc(-c4ccc(N5CCN(C(=O)C[*:2])CC5)cc4)nc(-c4ccc(N5CCN(C(=O)C[*:3])CC5)cc4)n3)cc2)CC1; X7 = O=C(c1ccc(C[*:1])cc1)N1CN(C(=O)c2ccc(C[*:2])cc2)CN(C(=O)c2ccc(C[*:3])cc2)C1

Legend:
EphA2 = target: T1, EphA2 (Homo sapiens, UniProt P29317); experiment: EphA2 SPR Assay; assay type: binding; settings: n = 2
T1 construct: purchased
T1 sequence (P29317 24-976, species assumed): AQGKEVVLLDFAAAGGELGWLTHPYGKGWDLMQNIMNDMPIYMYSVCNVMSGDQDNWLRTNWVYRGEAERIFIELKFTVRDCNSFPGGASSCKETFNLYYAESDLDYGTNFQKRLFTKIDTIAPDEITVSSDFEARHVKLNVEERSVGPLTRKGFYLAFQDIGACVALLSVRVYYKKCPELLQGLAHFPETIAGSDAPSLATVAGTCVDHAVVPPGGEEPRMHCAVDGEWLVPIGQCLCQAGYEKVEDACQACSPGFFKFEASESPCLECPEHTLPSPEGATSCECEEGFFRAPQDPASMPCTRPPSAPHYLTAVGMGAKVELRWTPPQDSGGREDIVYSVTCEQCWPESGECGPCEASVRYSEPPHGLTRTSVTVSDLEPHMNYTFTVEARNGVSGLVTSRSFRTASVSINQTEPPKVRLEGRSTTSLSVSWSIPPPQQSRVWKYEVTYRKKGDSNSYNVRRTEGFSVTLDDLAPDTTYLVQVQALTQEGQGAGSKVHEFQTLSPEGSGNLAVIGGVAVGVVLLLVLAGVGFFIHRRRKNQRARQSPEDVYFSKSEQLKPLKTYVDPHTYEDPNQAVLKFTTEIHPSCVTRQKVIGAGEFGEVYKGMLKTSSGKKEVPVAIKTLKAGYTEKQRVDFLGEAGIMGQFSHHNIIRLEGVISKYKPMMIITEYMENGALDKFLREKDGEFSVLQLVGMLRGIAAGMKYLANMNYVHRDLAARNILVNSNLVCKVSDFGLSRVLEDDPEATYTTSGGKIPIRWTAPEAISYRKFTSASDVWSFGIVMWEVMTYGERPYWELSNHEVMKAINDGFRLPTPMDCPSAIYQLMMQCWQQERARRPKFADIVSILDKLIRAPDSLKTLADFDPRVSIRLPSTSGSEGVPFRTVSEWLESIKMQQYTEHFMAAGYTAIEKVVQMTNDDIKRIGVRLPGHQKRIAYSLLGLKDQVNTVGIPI
Experimental: SPR Measurements: Non-Fc fusion proteins were biotinylated with EZ-Link™ Sulfo-NHS-LC-Biotin for 1 hour in 4 mM sodium acetate, 100 mM NaCl, pH 5.4 with a 3× molar excess of biotin over protein. The degree of labelling was determined using a Fluorescence Biotin QuantificationKit (Thermo) after dialysis of the reaction mixture into PBS. For analysis of peptide binding, a Biacore T200 10 instrument was used utilising a XanTec CMD500D chip. Streptavidin was immobilized on the chip using standard amine-coupling chemistry at 25° C. with HBS—N (10 mM HEPES, 0.15 M NaCl, pH 7.4) as the running buffer. Briefly, the carboxymethyl dextran surface was activated with a 7 min injection of a 1:1 ratio of 0.4 M 1-ethyl-3-(3-dimethylaminopropyl) carbodiimide hydrochloride (EDC)/0.1 M N-hydroxy succinimide (NHS) at a flow rate of 10 μl/min. For capture of streptavidin, the protein was diluted to 0.2 mg/ml in 10 mM sodium acetate (pH 4.5) and captured by injecting 120 μl onto the activated chip surface. Residual activated groups were blocked with a 7 min injection of 1 M ethanolamine (pH 8.5):HBS—N (1:1). Buffer was changed to PBS/0.05% Tween 20 and biotinylated EphA2 was captured to a level of 500-1500 RU using a dilution of protein to 0.2 μM in buffer. […]

MT1-MMP = MT1-MMP (Homo sapiens, UniProt P50281); settings: bicyclic peptide formed with TBMB scaffold; MT1-MMP binder; cited from earlier work
CAIX = CAIX (Homo sapiens, UniProt Q16790); settings: bicyclic peptide formed with TBMB scaffold; CAIX binder; cited from earlier work

Kd (EphA2) | Compound | further results
> 10 µM | CC(C)[C@H](NC(=O)[C@H](CC(=O)O)NC(=O)[C@H](C)N)C(=O)N[C@@H](Cc1cnc[nH]1)C(=O)N[C@H]1CSCc2ccc(cc2)C(=O)N2CN3CN(C2)C(=O)c2ccc(cc2)CSC[C@H](NC(=O)[C@H](Cc2c[nH]c4ccccc24)NC(=O)[C@H](Cc2ccccc2)NC(=O)[C@H]2CCCN2C(=O)CNC(=O)[C@H](Cc2c[nH]c4ccccc24)NC(=O)[C@@H]2CCCN2C1=O)C(=O)N1CCC[C@H]1C(=O)N[C@@H](C(C)C)C(=O)N[C@H](CC(N)=O)C(=O)N[C@H](CCCNC(=N)N)C(=O)N1CCC[C@@H]1C(=O)NCC(=O)N[C@H](C(=O)N[C@@H](C)C(=O)O)CSCc1ccc(cc1)C3=O [I-103] (H-ADVHCPWG[dP]FWCPV[dN][dR][dP]GCA-OH; linker 5-12-19 via X7) | 
< 0.5 µM | CC(C)[C@H](NC(=O)[C@H](CC(=O)O)NC(=O)[C@H](C)N)C(=O)N[C@@H](Cc1cnc[nH]1)C(=O)N[C@H]1CSCC(=O)N2CCN(CC2)c2ccc(cc2)-c2nc3nc(n2)-c2ccc(cc2)N2CCN(CC2)C(=O)CSC[C@H](NC(=O)[C@H](Cc2c[nH]c4ccccc24)NC(=O)[C@H](Cc2ccccc2)NC(=O)[C@H]2CCCN2C(=O)CNC(=O)[C@H](Cc2c[nH]c4ccccc24)NC(=O)[C@@H]2CCCN2C1=O)C(=O)N1CCC[C@H]1C(=O)N[C@@H](C(C)C)C(=O)N[C@H](CC(N)=O)C(=O)N[C@H](CCCNC(=N)N)C(=O)N1CCC[C@@H]1C(=O)NCC(=O)N[C@H](C(=O)N[C@@H](C)C(=O)O)CSCC(=O)N1CCN(CC1)c1ccc-3cc1 [I-104] (H-ADVHCPWG[dP]FWCPV[dN][dR][dP]GCA-OH; linker 5-12-19 via X11) | 
 | βAla-Sar10-A-C(D-Ala)NE(1Nal)(D-Ala)CEDFYD(tBuGLy)C (AXACANEXACEDFYDGC; βAla-Sar10 N-terminal; non-natural residues; molecular scaffold; MOD_RES (1)..(1) Beta-Ala; MOD_RES (2)..(2) Sar10; MOD_RES (5)..(5) D-Ala; MOD_RES (8)..(8) 1Nal; MOD_RES (9)..(9) D-Ala; MOD_RES (16)..(16) tBu-Gly) [17-69-07-N241, treated with molecular scaffold reagents] | Kd (MT1-MMP): 0.0012 µM
 | βAla-Sar10-A-CTECWVDGWVPC (AXACTECWVDGWVPC; βAla-Sar10 N-terminal; TBMB scaffold; MOD_RES (1)..(1) Beta-Ala; MOD_RES (2)..(2) Sar10) [compound 2] | Kd (CAIX): 0.01 µM
